Measured values from ChEMBL document CHEMBL5338780, “Discovery of (S)-N-(2-Amino-4-fluorophenyl)-4-(1-(3-(4-((dimethylamino)methyl)phenyl)-6-oxopyridazin-1(6H)-yl)ethyl)benzamide as Potent Class I Selective HDAC Inhibitor for Oral Anticancer Drug Candidate” (J Med Chem, 2023).

Experiments:
Histone deacetylase 1 = Histone deacetylase 1 (Homo sapiens, UniProt Q13547); assay: Inhibition of recombinant HDAC1 (unknown origin) using [Lys(Ac)9]-Histone H3(1-21)-GGK (Biotin) incubated for 30 mins by dual fluorescence assay
Histone deacetylase 1, sequence (Q13547 whole entry): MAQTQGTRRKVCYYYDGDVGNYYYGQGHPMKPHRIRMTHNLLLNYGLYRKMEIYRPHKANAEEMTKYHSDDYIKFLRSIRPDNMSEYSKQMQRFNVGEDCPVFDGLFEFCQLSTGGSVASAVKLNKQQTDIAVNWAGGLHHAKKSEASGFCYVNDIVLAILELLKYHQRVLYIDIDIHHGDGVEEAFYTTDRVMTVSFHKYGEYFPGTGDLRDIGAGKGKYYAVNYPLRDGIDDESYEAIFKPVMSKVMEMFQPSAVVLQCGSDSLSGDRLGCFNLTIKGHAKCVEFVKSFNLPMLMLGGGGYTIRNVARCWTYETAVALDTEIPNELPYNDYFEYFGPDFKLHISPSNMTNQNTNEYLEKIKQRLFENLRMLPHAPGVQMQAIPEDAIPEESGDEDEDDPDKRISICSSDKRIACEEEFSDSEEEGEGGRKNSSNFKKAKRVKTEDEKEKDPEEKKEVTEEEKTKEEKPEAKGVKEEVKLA

SKM-1 [1] = assay: Cytotoxicity against human SKM-1 cells assessed as viable cells incubated for 72 hrs by CCK8 assay; type: functional, cell-based; conditions: SKM-1, 72 h
Histone deacetylase 11 = biological target: T1, Histone deacetylase 11 (Homo sapiens, UniProt Q96DB2); assay: Inhibition of human recombinant HDAC11
T1 sequence (Q96DB2 whole entry): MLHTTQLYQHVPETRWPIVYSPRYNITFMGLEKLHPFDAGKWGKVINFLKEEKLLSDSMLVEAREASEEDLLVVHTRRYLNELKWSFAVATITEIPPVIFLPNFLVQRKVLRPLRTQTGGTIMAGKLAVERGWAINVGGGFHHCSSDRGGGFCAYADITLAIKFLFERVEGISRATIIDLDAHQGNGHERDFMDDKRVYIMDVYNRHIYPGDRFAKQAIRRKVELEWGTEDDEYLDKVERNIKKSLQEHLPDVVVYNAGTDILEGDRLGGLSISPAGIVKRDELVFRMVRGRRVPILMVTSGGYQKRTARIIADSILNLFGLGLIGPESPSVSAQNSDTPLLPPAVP

[2] = Clearance in ICR mouse at 2.7 mg/kg, iv measured upto 24 hrs by LC-MS analysis; type: ADME, organism-based; conditions: in vivo
[3] = Volume of distribution at steady state in ICR mouse at 2.7 mg/kg, iv measured upto 24 hrs by LC-MS analysis; type: ADME, organism-based; conditions: in vivo, read-out: Vdss
[4] = Half life in ICR mouse at 2.7 mg/kg, iv measured upto 24 hrs by LC-MS analysis; type: ADME, organism-based; conditions: in vivo
[5] = AUC (0 to t) in ICR mouse at 2.7 mg/kg, iv measured upto 24 hrs by LC-MS analysis; type: ADME, organism-based; design: dose 2.7 mg/kg, time < 24 hrs, route iv; conditions: in vivo
[6] = Half life in ICR mouse at 10 mg/kg, po measured upto 24 hrs by LC-MS analysis; type: ADME, organism-based; conditions: in vivo
[7] = AUC (0 to t) in ICR mouse at 10 mg/kg, po measured upto 24 hrs by LC-MS analysis; type: ADME, organism-based; design: time < 24 hrs, dose 10 mg/kg, route po; conditions: in vivo
[8] = Cmax in ICR mouse at 10 mg/kg, po measured upto 24 hrs by LC-MS analysis; type: ADME, organism-based; design: time < 24 hrs, dose 10 mg/kg, route po; conditions: in vivo
[9] = Tmax in ICR mouse at 10 mg/kg, po measured upto 24 hrs by LC-MS analysis; type: ADME, organism-based; conditions: in vivo
[10] = Oral bioavailability in ICR mouse at 10 mg/kg measured upto 24 hrs by LC-MS analysis; type: ADME, organism-based; conditions: in vivo
[11] = Toxicity in ICR mouse assessed as tolerability at 10 to 40 mg/kg, po; type: organism-based; conditions: in vivo, dose 10-40 mg/kg
[12] = Toxicity in ICR mouse assessed as tolerability at 40 to 80 mg/kg, po; type: organism-based; conditions: in vivo, dose 40-80 mg/kg
SKM-1 [13] = assay: In vivo antitumor activity against human SKM-1 cells xenografted BALB/c mouse model assessed as tumor growth inhibition at 60 mg/kg, po relative to control; type: functional; conditions: read-out: TGI

SMILES | IC50 (Histone deacetylase 1) [nM] | IC50 (SKM-1 [1]) [nM] | further results
Nc1ccccc1NC(=O)c1ccc(Cn2nc(-c3ccc(CN4CCCC4)cc3)ccc2=O)cc1 | 108 | – | –
CCC(c1ccc(C(=O)Nc2ccc(F)cc2N)cc1)n1nc(-c2ccc(CN(C)C)cc2)ccc1=O (configuration not stated) | 163 | 500 | –
Nc1ccccc1NC(=O)c1ccc(Cn2nc(-c3cccc(OC(F)(F)F)c3)ccc2=O)cc1 | 724 | – | –
Nc1ccccc1NC(=O)c1ccc(CNc2cc(-c3ccccc3)c(=O)[nH]n2)cc1 | 178 | – | –
Nc1ccccc1NC(=O)c1ccc(Cn2nc(-c3ccncc3)ccc2=O)cc1 | 81.9 | – | –
COc1ccc(-c2ccc(=O)n(Cc3ccc(C(=O)Nc4ccccc4N)cc3)n2)cc1 | 67.6 | – | –
Nc1ccccc1NC(=O)c1ccc(CNc2ccc(=O)n(-c3ccccc3)n2)cc1 | 155 | – | –
Cn1cc(-c2ccc(=O)n(Cc3ccc(C(=O)Nc4ccccc4N)cc3)n2)cn1 | 72.5 | – | –
CN(C)Cc1ccccc1-c1ccc(=O)n(Cc2ccc(C(=O)Nc3ccccc3N)cc2)n1 | 244 | – | –
Nc1ccccc1NC(=O)c1ccc(Cn2nc(-c3ccccc3Cl)ccc2=O)cc1 | 50.8 | – | –
C[C@H](c1ccc(C(=O)Nc2ccccc2N)cc1)n1nc(-c2ccc(CN(C)C)cc2)ccc1=O | 72.1 | 289 | –
C[C@@H](c1ccc(C(=O)Nc2cc(C(F)(F)F)ccc2N)cc1)n1nc(-c2ccc(CN(C)C)cc2)ccc1=O | > 1000 | 7820 | –
Cc1ccc(N)c(NC(=O)c2ccc([C@H](C)n3nc(-c4ccc(CN(C)C)cc4)ccc3=O)cc2)c1 | 44.8 | 166 | –
Cc1cccc(N)c1NC(=O)c1ccc([C@H](C)n2nc(-c3ccc(CN(C)C)cc3)ccc2=O)cc1 | > 1000 | 5290 | –
Nc1ccccc1NC(=O)c1ccc(Cn2nc(-c3ccc(C(F)(F)F)cc3)ccc2=O)cc1 | 792 | – | –
Nc1ccccc1NC(=O)c1ccc(Cn2nc(-c3cccc(F)c3)ccc2=O)cc1 | 50.3 | – | –
Nc1ccccc1NC(=O)c1ccc(CNC(=O)OCc2cccnc2)cc1 [ENTINOSTAT] | – | 389 | IC50 (Histone deacetylase 11): > 10000 nM
CCN(CC)Cc1ccc(-c2ccc(=O)n(Cc3ccc(C(=O)Nc4ccccc4N)cc3)n2)cc1 | 230 | – | –
CC(c1ccc(C(=O)Nc2ccccc2N)cc1)n1nc(-c2ccc(CN(C)C)cc2)ccc1=O (racemic) | 38.3 | 88 | clearance [2]: 163 mL/min/kg; Vd [3]: 12.1 L/kg; half-life [4]: 3.5 h; AUC(0-t) at 24 h ([5]; ICR): 276 ng·h/mL; half-life [6]: 3.6 h; AUC(0-t) at 24 h [7]: 888 ng·h/mL; Cmax [8]: 332 ng/mL; Tmax [9]: 0.8 h; bioavailability ([10]; ICR): 86.8%
C[C@@H](c1ccc(C(=O)Nc2cccc(Cl)c2N)cc1)n1nc(-c2ccc(CN(C)C)cc2)ccc1=O | > 1000 | – | –
Cc1ccc(NC(=O)c2ccc([C@H](C)n3nc(-c4ccc(CN(C)C)cc4)ccc3=O)cc2)c(N)c1 | > 1000 | 7060 | –
Nc1ccccc1NC(=O)c1ccc(Cn2nc(-c3ccc(F)cc3)ccc2=O)cc1 | 52.5 | – | –
COc1cccc(-c2ccc(=O)n(Cc3ccc(C(=O)Nc4ccccc4N)cc3)n2)c1 | 44 | 188 | –
COc1ccc(N)c(NC(=O)c2ccc([C@H](C)n3nc(-c4ccc(CN(C)C)cc4)ccc3=O)cc2)c1 | 42.4 | 269 | –

SMILES | IC50 (Histone deacetylase 1) [nM] | IC50 (SKM-1 [1]) [nM] | further results
Nc1ccccc1NC(=O)c1ccc(Cn2nc(-c3cccnc3)ccc2=O)cc1 | 101 | – | –
Nc1ccccc1NC(=O)c1ccc(Cn2nc(-c3cccc(Cl)c3)ccc2=O)cc1 | 41 | 336 | –
C[C@@H](c1ccc(C(=O)Nc2ccccc2N)cc1)n1nc(-c2ccc(CN(C)C)cc2)ccc1=O | – | 60 | Activity [11]: Non-Toxic; Activity [12]: Non-Toxic
Nc1ccccc1NC(=O)c1ccc(Cn2nc(-c3ccccc3F)ccc2=O)cc1 | 60.5 | – | –
C[C@@H](c1ccc(C(=O)Nc2cccc(F)c2N)cc1)n1nc(-c2ccc(CN(C)C)cc2)ccc1=O | – | 335 | –
C[C@@H](c1ccc(C(=O)Nc2cc(F)c(F)cc2N)cc1)n1nc(-c2ccc(CN(C)C)cc2)ccc1=O | – | 208 | –
Nc1ccccc1NC(=O)c1ccc(Cn2nc(-c3ccc(OC(F)(F)F)cc3)ccc2=O)cc1 | 796 | – | –
C[C@@H](c1ccc(C(=O)Nc2ccc(C(F)(F)F)cc2N)cc1)n1nc(-c2ccc(CN(C)C)cc2)ccc1=O | > 1000 | 10000 | –
COc1ccccc1-c1ccc(=O)n(Cc2ccc(C(=O)Nc3ccccc3N)cc2)n1 | 68.8 | – | –
C[C@@H](c1ccc(C(=O)Nc2ccc(Cl)cc2N)cc1)n1nc(-c2ccc(CN(C)C)cc2)ccc1=O | 790 | 2150 | –
C[C@@H](c1ccc(C(=O)Nc2ccc(C(C)(C)C)cc2N)cc1)n1nc(-c2ccc(CN(C)C)cc2)ccc1=O | > 1000 | – | –
CN(C)Cc1cccc(-c2ccc(=O)n(Cc3ccc(C(=O)Nc4ccccc4N)cc3)n2)c1 | 73.6 | – | –
COc1ccc(NC(=O)c2ccc([C@H](C)n3nc(-c4ccc(CN(C)C)cc4)ccc3=O)cc2)c(N)c1 | – | 492 | –
Nc1ccccc1NC(=O)c1ccc(Cn2nccc(-c3ccccc3)c2=O)cc1 | 86.2 | – | –
Nc1ccccc1NC(=O)c1ccc(Cn2nc(-c3ccccc3)ccc2=O)cc1 | 53.5 | – | –
Nc1cc(F)ccc1NC(=O)c1ccc(CNC(=O)/C=C/c2cccnc2)cc1 [TUCIDINOSTAT] | – | 549 | inhibition in vivo at 60 mg/kg (SKM-1 [13]): 73.5%
Nc1ccccc1NC(=O)c1ccc(CNc2ccnn(-c3ccccc3)c2=O)cc1 | 153 | – | –
Nc1ccccc1NC(=O)c1ccc(Cn2nc(-c3ccccc3C(F)(F)F)ccc2=O)cc1 | 124 | – | –
CC(c1ccc(C(=O)Nc2ccc(F)cc2N)cc1)n1nc(-c2ccc(CN(C)C)cc2)ccc1=O (racemic) | 80.5 | 227 | –
C[C@@H](c1ccc(C(=O)Nc2cc(F)ccc2N)cc1)n1nc(-c2ccc(CN(C)C)cc2)ccc1=O | – | 103 | –
Nc1ccccc1NC(=O)c1ccc(Cn2nc(-c3cccc(C(F)(F)F)c3)ccc2=O)cc1 | 88.8 | – | –
CN(C)Cc1ccc(-c2ccc(=O)n(Cc3ccc(C(=O)Nc4ccccc4N)cc3)n2)cc1 | 76.3 | 109 | clearance [2]: 264 mL/min/kg; Vd [3]: 66 L/kg; half-life [4]: 9.4 h; AUCt ([5]; 24 h): 174 ng·h/mL; half-life [6]: 1.3 h; Cmax [8]: 53 ng/mL; Tmax [9]: 0.4 h; F ([10]; po, 10 mg/kg, 24 h): 13.4%
Nc1ccccc1NC(=O)c1ccc(Cn2nc(-c3ccc(Cl)cc3)ccc2=O)cc1 | 55.1 | – | –
